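Following 48 hours of exposure in 96-well plates, responses at five concentrations were used to interpolate endpoints linearly. At the GI50, growth is halved. The concentration for full growth arrest is given as TGI.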
Legend:
Experiment in all cases: NCI-60 cell line screen, 48 h
OVCAR-3 ovarian = test system: OVCAR-3 ovarian
SF-539 CNS = test system: SF-539 CNS
UACC-257 melanoma = test system: UACC-257 melanoma
SW-620 colon = test system: SW-620 colon
SR leukemia = test system: SR leukemia
SF-268 CNS = test system: SF-268 CNS
CAKI-1 renal = test system: CAKI-1 renal
OVCAR-5 ovarian = test system: OVCAR-5 ovarian
PC-3 prostate = test system: PC-3 prostate

SMILES | TGI (OVCAR-3 ovarian) | TGI (SF-539 CNS) | TGI (UACC-257 melanoma) | TGI (SW-620 colon) | TGI (SR leukemia) | TGI (SF-268 CNS) | TGI (CAKI-1 renal) | TGI (OVCAR-5 ovarian) | GI50 (OVCAR-3 ovarian) | GI50 (SF-539 CNS) | GI50 (UACC-257 melanoma) | GI50 (SW-620 colon) | GI50 (PC-3 prostate) | TGI (PC-3 prostate) | GI50 (SF-268 CNS) | GI50 (OVCAR-5 ovarian) | GI50 (CAKI-1 renal)
Cc1ccc(NC(=O)C2C(=O)N(c3ccc(C)c(C)c3)C(=O)/C2=N\NC(N)=S)cc1C (stereo unspecified) | > 100 µM | > 100 µM | > 100 µM | > 100 µM | > 100 µM | > 100 µM | > 100 µM |  |  |  |  |  |  |  |  |  | 
BrC1=CC=C2NCCCCCCN=C3C=CC(Br)=CC=C3NCCCCCCN=C2C=C1 | > 25.5 µM | > 25.5 µM | > 25.5 µM | > 25.5 µM |  | > 25.5 µM | > 25.5 µM | > 25.5 µM |  |  |  |  |  |  |  |  | 
Cc1[nH]nc2c1C(=O)C=C(N(CCO)c1ccccc1)C2=O | > 100 µM | > 100 µM | > 100 µM | > 100 µM |  |  | > 100 µM |  |  |  |  |  |  |  |  |  | 
c1ccc2cc(Cn3c[n+](Cc4ccc5ccccc5c4)c4ccccc43)ccc2c1 | 2.22 µM | 3 µM | 2.97 µM | 2.75 µM |  | 2.72 µM |  | 2.89 µM | 0.927 µM | 1.59 µM | 1.39 µM | 1.27 µM | 1.1 µM | 2.43 µM | 1.31 µM | 1.46 µM | 
O=[N+]([O-])[O-].O=[N+]([O-])[O-].[Au].[Au].c1ccc([P-]c2ccccc2)cc1.c1ccc([P-]c2ccccc2)cc1 | 55.4 µM | 77.7 µM | 62.7 µM | > 100 µM |  | > 100 µM | 52.7 µM | > 100 µM | 26.4 µM | 43.9 µM | 26.3 µM | 38.7 µM |  |  | 65.1 µM | > 100 µM | 26.9 µM
O=C(O)/C(=C\c1ccccc1Cl)S(=O)(=O)c1ccccc1 |  | > 100 µM | > 100 µM | > 100 µM |  | > 100 µM | > 100 µM | > 100 µM |  |  |  |  |  |  |  |  | 
CC1CCP(=O)(c2ccccc2)CC1 (stereo unspecified) | > 100 µM | > 100 µM | > 100 µM | > 100 µM |  | > 100 µM | > 100 µM | > 100 µM |  |  |  |  |  |  |  |  | 
CC1(C)CC(=O)C(=[N+]=[N-])C(=O)C1 | > 100 µM | > 100 µM | > 100 µM | > 100 µM |  | > 100 µM | > 100 µM | > 100 µM |  |  |  |  |  |  |  |  | 
Cc1cccc(C)c1NC(=O)CCC(=O)NC(N)=S | > 100 µM | > 100 µM | > 100 µM | > 100 µM | > 100 µM |  | > 100 µM | > 100 µM |  |  |  |  |  |  |  |  | 
COC(=O)C1N=CSCC1(C)O (stereo unspecified) | > 100 µM | > 100 µM | > 100 µM | > 100 µM |  | > 100 µM | > 100 µM | > 100 µM |  |  |  |  |  |  |  |  | 
CC(=O)[C-](C(C)=O)c1ccccc1.CC(=O)[C-](C(C)=O)c1ccccc1.CC[O-].CC[O-].[Ti+4] | > 100 µM | > 100 µM | > 100 µM | > 100 µM |  | > 100 µM | > 100 µM | > 100 µM | > 100 µM | > 100 µM | > 100 µM | > 100 µM |  |  | > 100 µM | > 100 µM | > 100 µM
c1cc[c]([Sn]([S]c2cccc3cccnc23)([S]c2cccc3cccnc23)[c]2ccccc2)cc1 | 0.361 µM | 0.893 µM | 0.559 µM | 0.365 µM |  | 1.48 µM | 0.43 µM | 2.69 µM | 0.165 µM | 0.295 µM | 0.205 µM | 0.14 µM |  |  | 0.331 µM | 1.34 µM | 0.134 µM
COc1ccc(C(=O)C(C(=O)C(=O)Nc2nccs2)c2ccc(OC)cc2)cc1 (stereo unspecified) | > 100 µM | > 100 µM | > 100 µM | > 100 µM |  | > 100 µM | > 100 µM | > 100 µM |  |  |  |  |  |  |  |  | 
COc1cc(Cl)c2c3c(c(C(=O)c4ccccc4)oc13)CCC2 | > 100 µM | > 100 µM | > 100 µM | > 100 µM |  |  | > 100 µM |  |  |  |  |  |  |  |  |  | 
N#C/C(N)=C(\C#N)N=Cc1csc2ccccc12 | 47.8 µM | 50.9 µM | > 100 µM | > 100 µM |  |  | > 100 µM | > 100 µM | 19.1 µM | 20.1 µM | > 100 µM | > 100 µM | 47.3 µM | > 100 µM |  | 67.1 µM | 43.3 µM
Cc1cc(N(CCC#N)CCC#N)ccc1N=Nc1cccc(Cl)c1 | > 100 µM | > 100 µM | > 100 µM | > 100 µM |  |  | > 100 µM | > 100 µM |  |  |  |  |  |  |  |  | 
CCCCN(CCCC)C(=O)C(=O)C(C)C(=O)CC (stereo unspecified) | > 100 µM | > 100 µM | > 100 µM | > 100 µM |  | > 100 µM | > 100 µM | > 100 µM |  |  |  |  |  |  |  |  | 
N[C@@H]1CCCC[C@@H]1N.O=C([O-])CN(CP(=O)([O-])[O-])CP(=O)([O-])[O-].[Pt+2] | > 100 µM | > 100 µM | > 100 µM | > 100 µM |  | > 100 µM | > 100 µM |  | > 100 µM | > 100 µM | > 100 µM | > 100 µM |  |  | > 100 µM |  | > 100 µM
N#CC(C(=N/NC(N)=S)/C(=N/NC(N)=S)C(C#N)c1ccc(Cl)cc1)c1ccc(Cl)cc1 (stereo unspecified) | > 100 µM | > 100 µM | > 100 µM | > 100 µM |  | > 100 µM |  | > 100 µM |  |  |  |  |  |  |  |  | 

Reference: PubChem BioAssay (NCI)
